Reference: patent US20240327364A1, “THERAPEUTIC TARGETING OF GPR68 TO INDUCE FERROPTOSIS” (University Of Maryland, Baltimore, priority 2023, published 2024)
Read-outs that look alike come from different tables or passages of the source.

Tests used:
[1] = system: HCT 116; experiment: Cell Titer-Glo viability, Colorectal adenocarcinoma; type: cell-based; conditions: 72 hours
Method: (§1) OGM2 kills wide variety of cancer cell types. Cell sensitivity can be classified in to Very Sensitive (LC50<2 μM), Sensitive (LC50=2 to 10 μM), Mildly Sensitive (LC50>10 μM), and Refractory (no killing at 10 μM). The listed established cell were incubated with OGM2 at 2 μM or 10 μM for 72 hours under standard cell culture conditions, and relative cell number was assessed using Cell Titer-Glo Luminescent Cell Viability Assay (Promega™) following the manufacturer's instructions. Luminescence was determined using a Cytation 5 reader and Gen5 software package (BioTek™).
(§2) Cancer cells, which are very sensitive to killing by OGM2 (LCs <2 μM), with reported mRNA expression of GPR68 and the related proton sensing receptor GPR4. LC50's (concentrations causing 50% lethality) were determined using CellTiter-Glo (Promega™, G7570). Cells were plated in 12-well plates (CELLTREAT Scientific Products, 229112) in 1 ml of DMEM with high glucose, GlutaMAX, HEPES, or RPMI 1640 with Penicillin-Streptomycin (ThermoFisher™, 10564029, 11875119 and 15140122) and 10% FBS. Cells were incubated overnight at 37° C. in 5% CO2. Then 1 mL of fresh media was added with DMSO, OGM, or positive control (Erastin; APExBIO Technology, LLC, B1524) and cells incubated for 3 days. On the third day, all media was removed, cells were rinsed with 1×PBS, PBS was removed, and 200 μL of 1× Passive Lysis Buffer (Promega™, E1941) was added to each well. […]. Subsequently, 20 μL of lysate was added to 100 μL CellTiter-Glo™ reagent on a LUMITRAC 200 plate (Greiner™ bio-one, 82050-726). Plates were briefly spun down and read on a GloMax-Multi Detection System (Promega™).
(§3) The cells listed in the tables above were incubated with OGM2 at 2 μM or 10 μM for 72 hours under standard cell culture conditions, and relative cell number was assessed using Cell Titer-Glo Luminescent Cell Viability Assay (Promega™) following the manufacturer's instructions. Luminescence was determined using a Cytation 5 reader and Gen5 software package (BioTek™). RNA expression of GPR68 and GPR4 in the corresponding cancer cell lines are listed, according to the publicly available The Human Protein Atlas version 22.0 and Ensembl version 103.38 (see proteinatlas.org). The consensus normalized expression value (“nTPM”=normalize transcript per million) was calculated as the maximum nTPM value for each gene in the two data sources.

[2] = system: RKO; experiment: as above; type: cell-based
Method: as §1, §2, §3

[3] = target: T1, PCTK3 (Homo sapiens, UniProt Q07002); experiment: KinomeScan; type: binding; conditions: read-out: % Control
T1 construct: purchased DiscoveRx

[4] = target: T2, ChemR23 (Homo sapiens, UniProt Q99788); experiment: GPCR Profiler; type: cell-based
T2 construct: host or cells: Chem-1 cells with Gα15

[5] = target: T3, NK2 (Homo sapiens, UniProt P21452); experiment: GPCR Profiler; type: cell-based
T3 construct: host or cells: Chem-1 cells expressing Gα15

[6] = target: T4, KIT(L576P) (Homo sapiens, UniProt P10721, L576P); experiment: KinomeScan; type: binding; conditions: read-out: % Control
T4 construct: purchased DiscoveRx

[7] = target: T5, ERN1 (Homo sapiens, UniProt O75460); experiment: KinomeScan; type: binding; conditions: read-out: % Control
T5 construct: purchased DiscoveRx (Fremont, CA)

[8] = target: T6, Motilin (Homo sapiens, UniProt O43193); experiment: GPCR Profiler; type: cell-based
T6 construct: host or cells: Chem-1 cells expressing Gα15

[9] = target: T7, OPRK1 (Homo sapiens, UniProt P41145); experiment: GPCR Profiler; type: cell-based
T7 construct: host or cells: Chem-1 cells expressing Gα15

[10] = target: T8, GPR41 (Homo sapiens, UniProt O14843); experiment: GPCR Profiler; type: cell-based
T8 construct: host or cells: Chem-1 cells with promiscuous Gα15

[11] = target: T9, CAMKK2 (Homo sapiens, UniProt Q96RR4); experiment: KinomeScan; type: binding; conditions: read-out: % Control
T9 construct: purchased DiscoveRx (KinomeScan service)

[12] = target: T10, RSK1(Kin.Dom.1-N-terminal) (Homo sapiens, UniProt Q15418); experiment: KinomeScan; type: binding; conditions: read-out: % Control
T10 construct: RSK1(Kin.Dom.1-N-terminal); purchased DiscoveRx (Fremont, CA)

[13] = target: T11, STK36 (Homo sapiens, UniProt Q9NRP7); experiment: KinomeScan; type: binding; conditions: read-out: % Control
T11 construct: purchased DiscoveRx (Fremont, CA)

[14] = target: T12, PLK2 (Homo sapiens, UniProt Q9NYY3); experiment: KinomeScan; type: binding; conditions: read-out: % Control
T12 construct: purchased DiscoveRx (Fremont, CA)

[15] = target: T13, BRAF (Homo sapiens, UniProt P15056); experiment: KinomeScan; type: binding; conditions: read-out: % Control
T13 construct: purchased DiscoveRx (Fremont, CA)

[16] = target: T14, P2Y11 (Homo sapiens, UniProt Q96G91); experiment: GPCR Profiler; type: cell-based
T14 construct: host or cells: Chem-1 cells expressing Gα15

[17] = target: T15, TSH (Homo sapiens, UniProt P16473); experiment: GPCR Profiler; type: cell-based
T15 construct: host or cells: Chem-1 cells with Gα15

[18] = target: T16, STK33 (Homo sapiens, UniProt Q9BYT3); experiment: KinomeScan; type: binding; conditions: read-out: % Control
T16 construct: purchased DiscoveRx (Fremont, CA)

[19] = target: T17, LRRK2 (Homo sapiens, UniProt Q5S007); experiment: KinomeScan; type: binding; conditions: read-out: % Control
T17 construct: purchased DiscoveRx

[20] = target: T18, MUSK (Homo sapiens, UniProt O15146); experiment: KinomeScan; type: binding; conditions: read-out: % Control
T18 construct: purchased DiscoveRx

[21] = target: CDKL5 (Homo sapiens, UniProt O76039); experiment: KinomeScan; type: binding; conditions: read-out: % Control
[22] = target: CSNK1G3 (Homo sapiens, UniProt Q9Y6M4); experiment: KinomeScan; type: binding; conditions: read-out: % Control
[23] = target: T19, ABL1(F317I)-nonphosphorylated (Homo sapiens, UniProt P00519, F317I); experiment: KinomeScan; type: binding; conditions: read-out: % Control
T19 construct: purchased DiscoveRx
T19 sequence (P00519 242-493 F317I limits assumed): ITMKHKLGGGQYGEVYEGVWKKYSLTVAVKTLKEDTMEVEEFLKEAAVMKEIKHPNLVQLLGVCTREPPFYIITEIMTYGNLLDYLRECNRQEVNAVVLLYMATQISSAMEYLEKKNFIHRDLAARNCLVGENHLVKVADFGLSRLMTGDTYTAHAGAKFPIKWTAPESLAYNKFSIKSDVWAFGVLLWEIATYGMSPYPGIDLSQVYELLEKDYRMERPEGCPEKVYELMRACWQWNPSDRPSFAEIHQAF

T14 sequence (Q96G91 whole entry, species assumed): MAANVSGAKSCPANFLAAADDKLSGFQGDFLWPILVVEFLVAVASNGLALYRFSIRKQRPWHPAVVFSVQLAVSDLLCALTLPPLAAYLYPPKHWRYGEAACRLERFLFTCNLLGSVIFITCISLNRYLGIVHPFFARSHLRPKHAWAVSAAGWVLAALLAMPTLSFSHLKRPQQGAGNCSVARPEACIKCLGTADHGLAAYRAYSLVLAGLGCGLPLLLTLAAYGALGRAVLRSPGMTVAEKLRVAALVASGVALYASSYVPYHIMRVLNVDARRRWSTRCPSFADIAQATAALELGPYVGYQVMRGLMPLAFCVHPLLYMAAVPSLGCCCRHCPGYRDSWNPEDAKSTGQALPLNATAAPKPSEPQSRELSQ
T2 sequence (Q99788 whole entry, species assumed): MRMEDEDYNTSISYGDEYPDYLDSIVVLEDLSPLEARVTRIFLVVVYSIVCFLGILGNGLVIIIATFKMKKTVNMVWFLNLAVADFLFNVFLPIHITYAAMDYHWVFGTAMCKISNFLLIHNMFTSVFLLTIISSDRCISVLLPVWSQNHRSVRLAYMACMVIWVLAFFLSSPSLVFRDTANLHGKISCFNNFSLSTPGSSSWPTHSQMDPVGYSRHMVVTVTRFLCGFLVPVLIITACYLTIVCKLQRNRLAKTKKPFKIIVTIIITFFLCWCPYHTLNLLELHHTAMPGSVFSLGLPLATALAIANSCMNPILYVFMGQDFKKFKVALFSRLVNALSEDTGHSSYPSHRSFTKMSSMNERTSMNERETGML
T15 sequence (P16473 21-764): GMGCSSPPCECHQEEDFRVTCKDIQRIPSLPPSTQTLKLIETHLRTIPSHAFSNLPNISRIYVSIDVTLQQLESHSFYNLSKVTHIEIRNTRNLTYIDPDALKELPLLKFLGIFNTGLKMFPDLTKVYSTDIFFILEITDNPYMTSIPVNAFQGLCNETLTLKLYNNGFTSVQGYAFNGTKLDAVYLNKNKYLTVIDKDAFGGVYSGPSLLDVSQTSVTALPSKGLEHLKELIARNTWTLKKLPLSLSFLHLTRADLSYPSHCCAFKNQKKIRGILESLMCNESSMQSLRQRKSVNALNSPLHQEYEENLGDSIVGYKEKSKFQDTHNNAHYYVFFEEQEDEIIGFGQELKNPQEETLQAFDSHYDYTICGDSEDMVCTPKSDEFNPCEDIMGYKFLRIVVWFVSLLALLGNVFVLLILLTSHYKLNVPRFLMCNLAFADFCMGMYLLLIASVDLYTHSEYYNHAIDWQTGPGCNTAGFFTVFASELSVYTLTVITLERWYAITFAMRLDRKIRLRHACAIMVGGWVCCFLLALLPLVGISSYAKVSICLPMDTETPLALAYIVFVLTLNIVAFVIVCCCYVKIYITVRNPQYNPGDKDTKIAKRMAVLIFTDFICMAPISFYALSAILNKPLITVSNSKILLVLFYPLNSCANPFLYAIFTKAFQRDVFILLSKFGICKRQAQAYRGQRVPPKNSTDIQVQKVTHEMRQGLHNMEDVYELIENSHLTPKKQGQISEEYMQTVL
T3 sequence (P21452 whole entry): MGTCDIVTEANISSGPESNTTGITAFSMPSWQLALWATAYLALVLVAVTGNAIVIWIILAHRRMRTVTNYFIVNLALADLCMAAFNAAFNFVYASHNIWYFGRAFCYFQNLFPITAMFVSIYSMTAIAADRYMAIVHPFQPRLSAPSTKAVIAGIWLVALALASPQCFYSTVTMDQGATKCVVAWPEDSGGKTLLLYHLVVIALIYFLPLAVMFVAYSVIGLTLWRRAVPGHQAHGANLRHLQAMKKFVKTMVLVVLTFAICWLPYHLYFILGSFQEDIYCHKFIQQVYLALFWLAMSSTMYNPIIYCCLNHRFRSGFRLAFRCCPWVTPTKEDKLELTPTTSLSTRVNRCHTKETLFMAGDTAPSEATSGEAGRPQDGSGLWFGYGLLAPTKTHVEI
T8 sequence (O14843 whole entry, species assumed): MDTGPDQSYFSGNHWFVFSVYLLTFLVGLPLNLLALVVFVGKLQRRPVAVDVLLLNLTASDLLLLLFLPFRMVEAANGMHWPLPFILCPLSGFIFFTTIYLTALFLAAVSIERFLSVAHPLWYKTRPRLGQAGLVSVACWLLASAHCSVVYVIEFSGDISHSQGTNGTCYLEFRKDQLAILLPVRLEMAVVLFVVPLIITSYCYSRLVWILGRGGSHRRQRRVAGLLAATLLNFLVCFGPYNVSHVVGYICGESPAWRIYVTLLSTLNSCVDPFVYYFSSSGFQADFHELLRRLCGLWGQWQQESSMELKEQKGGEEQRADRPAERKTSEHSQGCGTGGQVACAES
T6 sequence (O43193 whole entry): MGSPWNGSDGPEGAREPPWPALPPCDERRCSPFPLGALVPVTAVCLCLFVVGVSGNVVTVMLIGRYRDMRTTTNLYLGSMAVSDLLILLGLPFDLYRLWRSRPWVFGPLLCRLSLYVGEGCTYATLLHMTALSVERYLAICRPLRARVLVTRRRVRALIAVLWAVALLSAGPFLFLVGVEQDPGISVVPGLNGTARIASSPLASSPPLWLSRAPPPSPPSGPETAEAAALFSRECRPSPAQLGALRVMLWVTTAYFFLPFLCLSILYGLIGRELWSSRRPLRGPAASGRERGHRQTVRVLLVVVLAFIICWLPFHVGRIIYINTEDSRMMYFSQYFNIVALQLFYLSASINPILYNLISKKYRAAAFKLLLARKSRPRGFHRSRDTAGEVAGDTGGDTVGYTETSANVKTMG
T7 sequence (P41145 whole entry, species assumed): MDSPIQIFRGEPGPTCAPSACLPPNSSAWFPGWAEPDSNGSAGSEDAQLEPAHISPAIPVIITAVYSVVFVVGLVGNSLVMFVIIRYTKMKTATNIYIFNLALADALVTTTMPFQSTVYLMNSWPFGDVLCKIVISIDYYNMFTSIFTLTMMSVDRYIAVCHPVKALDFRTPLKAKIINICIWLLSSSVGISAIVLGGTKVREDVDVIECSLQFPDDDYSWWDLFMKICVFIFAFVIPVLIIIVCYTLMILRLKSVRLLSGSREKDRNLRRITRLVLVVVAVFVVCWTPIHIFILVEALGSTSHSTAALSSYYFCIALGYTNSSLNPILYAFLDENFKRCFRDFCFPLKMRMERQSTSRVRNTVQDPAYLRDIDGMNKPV
T10 sequence (Q15418 62-321 limits assumed): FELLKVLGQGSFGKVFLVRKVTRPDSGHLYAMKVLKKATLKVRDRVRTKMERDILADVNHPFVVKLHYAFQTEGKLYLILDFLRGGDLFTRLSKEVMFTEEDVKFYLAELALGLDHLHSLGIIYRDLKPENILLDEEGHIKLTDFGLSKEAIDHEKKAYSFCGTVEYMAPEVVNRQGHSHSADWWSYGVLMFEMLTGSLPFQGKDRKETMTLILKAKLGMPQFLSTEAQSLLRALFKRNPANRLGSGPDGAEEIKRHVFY
T5 sequence (O75460 19-977): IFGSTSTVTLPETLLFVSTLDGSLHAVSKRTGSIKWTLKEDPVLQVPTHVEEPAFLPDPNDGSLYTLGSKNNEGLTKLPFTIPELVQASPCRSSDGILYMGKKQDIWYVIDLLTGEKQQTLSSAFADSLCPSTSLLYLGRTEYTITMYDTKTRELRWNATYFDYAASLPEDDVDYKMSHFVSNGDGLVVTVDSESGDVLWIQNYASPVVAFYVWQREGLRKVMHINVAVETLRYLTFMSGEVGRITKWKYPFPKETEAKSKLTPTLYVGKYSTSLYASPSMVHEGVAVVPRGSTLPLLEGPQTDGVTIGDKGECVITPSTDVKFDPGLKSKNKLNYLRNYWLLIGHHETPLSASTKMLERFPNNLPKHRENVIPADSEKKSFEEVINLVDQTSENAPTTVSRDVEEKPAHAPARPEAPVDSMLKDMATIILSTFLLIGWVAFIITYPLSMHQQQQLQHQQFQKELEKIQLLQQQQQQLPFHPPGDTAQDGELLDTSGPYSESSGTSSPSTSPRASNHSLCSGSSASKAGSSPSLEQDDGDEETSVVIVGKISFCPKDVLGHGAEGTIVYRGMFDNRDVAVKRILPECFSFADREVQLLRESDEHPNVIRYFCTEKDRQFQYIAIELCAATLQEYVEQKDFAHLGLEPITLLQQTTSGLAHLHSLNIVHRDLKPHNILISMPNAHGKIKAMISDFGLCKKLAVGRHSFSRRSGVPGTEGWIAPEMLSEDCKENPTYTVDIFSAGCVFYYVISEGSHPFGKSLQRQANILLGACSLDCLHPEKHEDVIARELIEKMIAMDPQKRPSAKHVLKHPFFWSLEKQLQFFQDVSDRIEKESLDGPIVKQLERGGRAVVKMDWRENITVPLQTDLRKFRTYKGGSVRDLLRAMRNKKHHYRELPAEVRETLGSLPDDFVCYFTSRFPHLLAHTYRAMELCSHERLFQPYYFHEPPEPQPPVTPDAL
CSNK1G3, sequence (Q9Y6M4 whole entry): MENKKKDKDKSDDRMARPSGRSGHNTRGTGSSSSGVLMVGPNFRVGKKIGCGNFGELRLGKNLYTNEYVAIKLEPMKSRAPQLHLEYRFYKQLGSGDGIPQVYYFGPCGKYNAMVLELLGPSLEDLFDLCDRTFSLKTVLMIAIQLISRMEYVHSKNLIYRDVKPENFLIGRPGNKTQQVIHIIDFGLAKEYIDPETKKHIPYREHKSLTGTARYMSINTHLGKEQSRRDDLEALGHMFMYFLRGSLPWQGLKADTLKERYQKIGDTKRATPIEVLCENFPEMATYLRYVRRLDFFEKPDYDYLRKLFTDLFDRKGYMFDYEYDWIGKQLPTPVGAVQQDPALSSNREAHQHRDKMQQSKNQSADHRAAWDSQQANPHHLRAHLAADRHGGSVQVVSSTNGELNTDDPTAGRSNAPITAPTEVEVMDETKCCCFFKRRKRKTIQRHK

With `CCc1ccc2c(c1)C1(NN=C(c3ccccc3)S1)C(=O)N2` (stereo not drawn) [OGM2] the “% Survival 2 μM OGM” value [1] was 44.5%, the “% Survival 10 μM OGM” value [1] was 32.7% and the CC50 ([1]; Homo sapiens, HCT-116, read-out: LC50 (the source's name)) was under 2 µM. The Class [2] was “Mildly”, the “% Survival 2 μM OGM” value ([2]; 72 hours) was 92.4% and the “% Survival 10 μM OGM” value ([2]; 72 hours) was 57.6%. The CC50 ([2]; Homo sapiens, RKO, 72 hours, read-out: LC50 (the source's name)) was over 10 µM and the Class ([2]; Table 13) was “Low”.
For `CCc1ccc2c(c1)C1(NN=C(c3cccc4ccccc34)S1)C(=O)N2` (stereo not drawn) [OGM1, 5-ethyl-5′-naphthalen-1-ylspiro[1H-indole-3,2′-3H-1,3,4-thiadiazole]-2-one], the remaining binding at 10 µM [3] was 99%, the Antagonism ([4]; 10 uM) was 0.1 and the Agonism ([4]; 12.5 uM) was 0. The Antagonism ([5]; 10 uM) was 1, the Agonism ([5]; 12.5 uM) was 0 and the remaining binding at 10 µM [6] was 82%. The remaining binding at 10 µM [7] was 72%, the Antagonism ([8]; 10 uM) was −0.7 and the Agonism ([8]; 12.5 uM) was 1. It also gave an Antagonism ([9]; 10 uM) of −8.1, an Agonism ([9]; 12.5 uM) of 4.3 and an Antagonism ([10]; 10 uM) of 1.9. It also gave an Agonism ([10]; 12.5 uM) of 0.4, a remaining binding at 10 µM [11] of 89% and a remaining binding at 10 µM [12] of 78%. The remaining binding at 10 µM [13] was 100%, the remaining binding at 10 µM [14] was 100% and the remaining binding at 10 µM [15] was 96%. It also gave an Antagonism ([16]; 10 uM) of −8.2, an Agonism ([16]; 12.5 uM) of −0.1 and an Antagonism ([17]; 10 uM) of 5.9. For the same molecule, the Agonism ([17]; 12.5 uM) was −0.1, the remaining binding at 10 µM [18] was 91% and the remaining binding at 10 µM [19] was 100%. The remaining binding at 10 µM [20] was 90%, the remaining binding at 10 µM [21] was 85% and the remaining binding at 10 µM [22] was 100%. For the same molecule, the remaining binding at 10 µM [23] was 100%.
